The target of the assay is T1, glucocerebrosidase (Homo sapiens, UniProt P04062).
T1 sequence (P04062 40-536): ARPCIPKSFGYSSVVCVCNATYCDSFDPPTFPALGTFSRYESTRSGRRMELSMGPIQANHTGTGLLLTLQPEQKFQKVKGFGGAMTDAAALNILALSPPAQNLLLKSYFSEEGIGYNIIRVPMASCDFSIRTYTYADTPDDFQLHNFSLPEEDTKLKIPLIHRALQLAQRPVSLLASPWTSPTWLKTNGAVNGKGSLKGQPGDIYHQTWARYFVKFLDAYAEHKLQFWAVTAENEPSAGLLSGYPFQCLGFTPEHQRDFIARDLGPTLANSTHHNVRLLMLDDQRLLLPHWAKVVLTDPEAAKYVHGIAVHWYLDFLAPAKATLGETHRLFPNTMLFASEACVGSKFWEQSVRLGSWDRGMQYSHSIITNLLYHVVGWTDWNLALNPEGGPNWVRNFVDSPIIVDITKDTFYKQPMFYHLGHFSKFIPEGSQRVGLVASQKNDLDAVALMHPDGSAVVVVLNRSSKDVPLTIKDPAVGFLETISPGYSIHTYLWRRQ
Nature of the assay: Glucocerebrosidase activity assay with blue substrate (4MU-Glc). The class given is biochemical. As for the experimental part:
Example 2—Glucocerebrosidase Activity Assay with Blue Substrate
The compounds in DMSO solution 0.5 μL/well were transferred to a black 96-well plate (the final titration was 24 nM to 50 μM, 12 concentrations, 2× dilution). 33.5 μL enzyme solution (7.5 nM final concentration) was transferred to the wells. After 5 min of incubation at room temperature, the enzyme reaction was initiated by the addition of 33 μL/well blue substrate. Final concentration of the blue substrate (4MU-Glc) was 1.5 mM. The blue substrate reaction was terminated by the addition of 33 μL/well stop solution (1 M NaOH and 1 M glycine mixture, pH 10) after 30 min of incubation at 37° C. The fluorescence was then measured in the Biotek Synergy H1 multi-mode plate reader with Ex=365 nm and Em=440 nm.
Additional compounds were synthesized and tested for glucocerebrosidase modulatory activity as described in Example 1 and Example 2.

Where [1] appears, read: Table 1, 7.5 nM enzyme, 1.5 mM 4MU-Glc, 30 min at 37° C.
Setting [2] is: Table 1, 7.5 nM enzyme, 1.5 mM 4MU-Glc, 30 min at 37° C., titration 24 nM to 50 μM.
Setting [3] is: Table 2, additional compounds, tested as described in Example 2.

This is an account of results in patent US12291533B2, “Substituted fused pyrimidine compounds and uses thereof” (Northwestern University, priority 2017, dated 2025).

One may read the Emax as the size of the effect at its maximum, as opposed to the concentration needed. As usually defined, the AC50 is the midpoint of the concentration-response curve, whichever way the signal moves. For `c1ccc(O[C@H]2CCCN(c3nc(-c4cccnc4)nc4ccccc34)C2)cc1` [Compound 25], the Emax under setting [1] came to 220%. In addition, the AC50 under setting [2] stood at 3.98 µM.

Regarding `CCn1ncc2c(N(C)CCOc3ccc(CNC(=O)CCCNC(=O)OC(C)(C)C)cc3)nc(-c3cccnc3)nc21` [Compound 146], under setting [3], the half-maximal activity concentration (AC50) came to 1.41 µM and the Emax came out at 940%.

For `CN(CCOc1ccccc1)c1cc(-c2cccnc2)nc(-c2cccnc2)n1` [Compound 85], the Emax under setting [1] is 460%. Also, the concentration at half-maximal activity (AC50) under setting [2] stood at 2.24 µM.

For the compound `CN(CCOc1ccccc1)c1nc(-c2ccc(N)nc2)nc2ccccc12` [Compound 54], the Emax under setting [1] turned out to be 170%. Also, the AC50 under setting [2] came to 3.1 µM.

In the case of `CN(CCOc1ccccc1)c1nc(-c2cccnc2)nc2sccc12` [Compound 60], the Emax under setting [1] came to 624%. Moreover, the AC50 under setting [2] is 3.16 µM.

`Cn1ncc2c(N3CCC[C@H](C(=O)Nc4ccccc4)C3)nc(-c3cccnc3)nc21` [Compound 116]: under setting [3], the AC50 was determined as 12.6 µM and the Emax amounted to 210%.

Regarding `C#Cc1ccc(OCCN(C)c2nc(-c3cccnc3)nc3ccccc23)cc1` [Compound 33], the Emax under setting [1] came to 190%. For the same compound, under setting [2], the AC50 is 2.82 µM.

Take `CN(CCOc1ccccc1)c1nc(-c2cccnc2)nc2cccnc12` [Compound 182]: under setting [3], the AC50 worked out at 5.01 µM and the maximal effect (Emax) is 225%.

In the case of `CN(CCOc1ccccc1)c1nc(-c2cccnc2)nc2ccoc12` [Compound 67], under setting [1], the Emax was determined as 787%. In addition, the AC50 under setting [2] came to 10 µM.

Take `CN(CCOc1ccccc1)c1cc(N2CC[C@@H](O)C2)nc(-c2cccnc2)n1` [Compound 171]: under setting [3], the AC50 is 5 µM and the Emax was 280%.

Take `CCn1ncc2c(N(C)C[C@H]3COc4ccccc4O3)nc(-c3cccnc3)nc21` [Compound 106]: under setting [1], the Emax turned out to be 250%. Besides, the AC50 under setting [2] worked out at 1.12 µM.

As to `CCn1ncc2c(N(C)CCOc3ccc(CN)cc3)nc(-c3ccsc3)nc21` [Compound 137], under setting [3], the AC50 worked out at 2 µM and the Emax came to 200%.

On to `CN(CCOc1ccccc1)c1nc(-c2cccnc2)nc2scnc12` [Compound 93], for which, under setting [1], the maximal response (Emax) was 270%. For the same compound, the AC50 under setting [2] was 4.47 µM.

For `CCN1Cc2nc(-c3cccnc3)nc(N(C)CCOc3ccccc3)c2C1` [Compound 150], under setting [3], the AC50 is 1.25 µM and the Emax was 135%.

Regarding `CN(CCC(=O)Nc1ccccc1)c1nc(-c2cccnc2)nc2c1cnn2C` [Compound 128], under setting [3], the AC50 was 44.7 µM and the maximal effect (Emax) stood at 275%.

`CN(CCOc1ccccc1)c1nc(-c2cccnc2)nc2ccsc12` [Compound 59]: under setting [1], the Emax was found to be 333%. Moreover, the AC50 under setting [2] is 5.01 µM.

With `CC(C)n1ncc2c(N(C)CCOc3ccccc3)nc(-c3cccnc3)nc21` [Compound 98], the Emax under setting [1] is 140%. In addition, under setting [2], the AC50 came out at 28.2 µM.

Turning to `CCn1ncc2c(N(C)CCOc3ccc(CNC(=O)CNC(=O)OC(C)(C)C)cc3)nc(-c3cccnc3)nc21` [Compound 139], under setting [3], the AC50 is 6.31 µM and the Emax was found to be 980%.

For `CN(CCOc1ccccc1)c1cc(N2CC(O)C2)nc(-c2cccnc2)n1` [Compound 173], under setting [3], the AC50 was determined as 2.5 µM and the maximum response (Emax) worked out at 260%.

Consider `CCn1ncc2c(N3CC[C@@H](Oc4ccccc4)C3)nc(-c3cncc(Cl)c3)nc21` [Compound 161], for which, under setting [3], the AC50 was found to be 39.8 µM and the Emax came to 190%.

Turning to `CCn1ncc2c(N(C)CCOc3ccc(CNC(=O)CCCCNC(=O)OC(C)(C)C)cc3)nc(-c3ccsc3)nc21` [Compound 149], under setting [3], the AC50 is 0.4 µM and the Emax turned out to be 157%.

Regarding `CC(C)Cn1ncc2c(N(C)CCOc3ccccc3)nc(-c3cccnc3)nc21` [Compound 183], under setting [3], the AC50 was found to be 2.5 µM and the Emax worked out at 340%.

As to `CN(CCOc1ccccc1)c1nc(-c2ccc(Cl)nc2)nc2ccccc12` [Compound 17], the Emax under setting [1] was 190%. Moreover, the AC50 under setting [2] was determined as 1.58 µM.

As to `CN(CCOc1ccccc1)c1nc(-c2cccnc2)nn2cccc12` [Compound 97], under setting [1], the Emax came to 531%. Besides, the AC50 under setting [2] came out at 3.16 µM.

On to `Cn1ncc2c(N3CCC[C@@H](C(=O)Nc4ccccc4)C3)nc(-c3cccnc3)nc21` [Compound 117], for which, under setting [3], the AC50 was found to be 14.1 µM and the Emax came out at 310%.

With `CN(CCOc1ccc(C(=O)ON2C(=O)CCC2=O)cc1)c1nc(-c2cccnc2)nc2ccccc12` [Compound 83], the Emax under setting [1] was 230%. Besides, under setting [2], the AC50 turned out to be 3.98 µM.

As to `COC(=O)Cc1ccc(CNc2nc(-c3cccnc3)nc3ccccc23)cc1` [Compound 61], the Emax under setting [1] amounted to 127%. Besides, under setting [2], the AC50 was determined as 2.51 µM.

For `CN(CCOc1ccccc1)c1nc(-c2cccnc2)nc2c1cnn2Cc1ccccc1` [Compound 152], under setting [3], the AC50 stood at 2 µM and the maximum response (Emax) worked out at 425%.

On to `CN(CCOc1ccccc1)c1cc(-c2ccccc2)nc(-c2cccnc2)n1` [Compound 65], for which the Emax under setting [1] was 144%. Moreover, the AC50 under setting [2] was found to be 1 µM.

Regarding `CN(C[C@@H]1COc2ccccc2O1)c1nc(-c2cccnc2)nc2ccccc12` [Compound 12], the Emax under setting [1] came to 220%. Moreover, the AC50 under setting [2] amounted to 2.67 µM.

In the case of `Cc1nn(Cc2ccccc2)c(C)c1N(C)c1nc(-c2cccnc2)nc2ccccc12` [Compound 74], the Emax under setting [1] was 194%. In addition, the AC50 under setting [2] turned out to be 10 µM.

As to `CCCCCC(=O)NCc1ccc(OCCN(C)c2nc(-c3cccnc3)nc3c2cnn3CC)cc1` [Compound 126], under setting [3], the AC50 was determined as 0.2 µM and the Emax was determined as 150%.

Regarding `CN(CCOc1cccc(C(=O)ON2C(=O)CCC2=O)c1)c1nc(-c2cccnc2)nc2ccccc12` [Compound 84], the Emax under setting [1] is 457%. Also, the AC50 under setting [2] turned out to be 4.47 µM.

As for `CN(CCOc1ccccc1)c1nc(-c2cccnc2)nc2ccc(F)cc12` [Compound 40], the Emax under setting [1] turned out to be 450%. The AC50 under setting [2] stood at 1.58 µM.

For the compound `CN(CCOc1cccc(C(=O)O)c1)c1nc(-c2cccnc2)nc2ccccc12` [Compound 80], the Emax under setting [1] turned out to be 442%. In addition, the AC50 under setting [2] was 15.8 µM.

Turning to `CN(CCOc1ccccc1)c1nc(-c2cccnc2)nc2c1CCC2` [Compound 56], the Emax under setting [1] was determined as 295%. Moreover, the AC50 under setting [2] came out at 3.3 µM.

`CN(CCOc1ccccc1)c1nc(-c2cccnc2)nc2c1cnn2-c1ccccc1` [Compound 151]: under setting [3], the AC50 came out at 2.5 µM and the maximal response (Emax) came to 305%.

Regarding `CCn1ncc2c(N(C)CCOc3ccc(C#N)cc3)nc(-c3ccsc3)nc21` [Compound 136], under setting [3], the AC50 was 2 µM and the Emax is 138%.

`CCn1ncc2c(N(C)CCOc3ccc(CNC(=O)CCCCNC(=O)OC(C)(C)C)cc3)nc(-c3cccnc3)nc21` [Compound 141]: under setting [3], the AC50 is 0.5 µM and the Emax came out at 800%.

As for `CCc1ccc(-c2nc(N(C)CCOc3ccc(CN)cc3)c3cnn(CC)c3n2)cc1` [Compound 124], under setting [3], the AC50 is 6.31 µM and the Emax is 480%.

As for `Cc1sc2nc(-c3cccnc3)nc(N(C)CCOc3ccccc3)c2c1C` [Compound 55], the maximum response (Emax) under setting [1] was determined as 458%. Further, under setting [2], the AC50 stood at 39.8 µM.

Consider `CN(CCOc1ccc2nccnc2c1)c1nc(-c2cccnc2)nc2ccccc12` [Compound 138], for which, under setting [3], the AC50 turned out to be 10 µM and the Emax stood at 875%.

For the compound `CN(CCOc1ccc(CCc2ccccc2)cc1)c1nc(-c2cccnc2)nc2ccccc12` [Compound 21], the Emax under setting [1] was 180%. The AC50 under setting [2] was 15.8 µM.

Regarding `CCn1ncc2c(N3CC[C@H](Oc4ccccc4)C3)nc(-c3cccnc3)nc21` [Compound 156], under setting [3], the AC50 came to 39.8 µM and the Emax is 220%.

As for `CCn1ncc2c(N3CC[C@H](Oc4ccccc4)C3)nc(-c3cncc(C(F)(F)F)c3)nc21` [Compound 158], under setting [3], the AC50 came out at 39.8 µM and the Emax worked out at 163%.

For `CCn1ncc2c(N(C)CCOc3ccc(CNC(C)=O)cc3)nc(-c3cccnc3)nc21` [Compound 125], under setting [3], the AC50 is 6.31 µM and the Emax is 610%.

In the case of `CN(CC1CCc2ccccc2C1)c1nc(-c2cccnc2)nc2ccccc12` (stereo not drawn) [Compound 75], under setting [1], the Emax is 115%. In addition, the AC50 under setting [2] was 2 µM.

Turning to `CN(CCOc1ccccc1)c1cc(C2CC[C@H](O)C2)nc(-c2cccnc2)n1` (stereo partly drawn) [Compound 172], under setting [3], the AC50 was 8.9 µM and the maximum response (Emax) turned out to be 525%.

As for `c1ccc(O[C@H]2CCN(c3nc(-c4cccnc4)nc4ccccc34)C2)cc1` [Compound 154], under setting [3], the AC50 is 4.47 µM and the Emax came out at 190%.

`CN(CCC(=O)Nc1ccccc1)c1nc(-c2cccnc2)nc2ccccc12` [Compound 127]: under setting [3], the AC50 was determined as 35.5 µM and the Emax came out at 325%.

Take `Cc1ccccc1OCCN(C)c1nc(-c2cccnc2)nc2ccccc12` [Compound 28]: the Emax under setting [1] was determined as 350%. For the same compound, the AC50 under setting [2] was determined as 3.16 µM.
